We go through three compounds from US20170204187A1, “METHODS OF TREATING AND PREVENTING CANCER DRUG RESISTANCE” (Genentech, Inc., priority 2014, published 2017).

“Also recorded” adds a separate entry of the source.

In one test the test system is LOX-IMVI VemR cell line. As to the kind of experiment: LOX-IMVI VemR resensitization to vemurafenib by FGFR antagonists (FIG. 2B). The test is classed as cell-based. On the procedure:
FIG. 2A-E.|A cell line (“LOX-IMVI VemR”) was engineered to be resistant to vemurafienib. A, An image of an immunoblot of 11 cell lines probed for FGFR1 expression. B, The LOX-IMVI VemR cell line is not affected by 5 μM vemurafenib (i.e., “PLX”) as shown in the DMSO plot; however, the cell line is affected by 5 μM vemurafenib in combination with an antagonist of FGFR signalling (i.e., BGJ398, PD173074, and AP24534).
The Lox-IMVI VemR cell line was used as the model of acquired resistance in B-raf mutant melanoma. 11 cell lines were tested for FGFR1 expression using a Western blot. Of the cell lines tested, FGFR1 expression was detected in the LOX-IMVI (vemurafenib sensitive) and LOX-IMVI VemR (vemurafenib resistant) lines (FIG. 2A).

The next test has as its system LOX-IMVI VemR cells. As to the kind of experiment: In vitro combination study vemurafenib + BGJ398, Vem-resistant cell outgrowth (FIG. 3A). The test is classed as cell-based.
The test system of another test is SK-MEL-24 cell line. The test is described as follows: In vitro combination study vemurafenib + BGJ398 (FIG. 3A). It is filed as cell-based. To be noted: PLX4032 combined with FGFR antagonist. From the text: (§1) FIG. 3A-B.|FGFR-inhibition prevents Vem-resistant cell outgrowth. […] B, Expression patterns of select proteins are shown on West Blots in the presence of vemurafenib (PLX4032), an antagonist of FGFR signalling (NV-BGJ398), and/or FGF2.

Another test relates to SK-MEL-3 cell line. The test is described as above. The conditions noted are these: PLX4032 combined with FGFR antagonist. The test is classed as cell-based.
Description: as §1

The test system of the next test is LOX-IMVI tumors. As to the kind of experiment: In vivo tumor volume, parental vemurafenib sensitive tumors. The conditions noted are these: for tumor volume: vemurafenib 25 mg/kg. The procedure:
(§2) FIG. 4A-C.|The LOX-IMVI VemR cell line has FGFR-mediated vemurafenib resistance in vivo. A, LOX-IMVI cells (parental cell line) are sensitive to vemurafenib.
(§3) The vemurafenib resistance and recovery of the LOX-IMVI VemR cell line was also studied in vivo. The tumor volume (mm^3) was measured in LOX-IMVI (parental, vemurafenib sensitive) tumors and in LOX-IMVI VemR (vemurafenib resistant) tumors in the presence of vemurafenib, BGJ398, or vemurafenib and BGJ398 ([…]).

The subject of another test is LOX-IMVI VemR tumors. As to the kind of experiment: In vivo tumor volume, vemurafenib resistant tumors. The conditions noted are these: for tumor volume / efficacy: combination treatment of vemurafenib and BGJ398. The procedure: as §2, §3
For the next test, the system named is HCC1569 cells. The test is described as follows: Innate resistance model, sensitization to lapatinib (FIG. 20A). To be noted: 100 nM BGJ398 with 5 μM lapatinib. It is filed as cell-based. The procedure:
(§4) FIG. 20 A-C.|HER2+ breast cancer models of innate resistance. A, FGFR inhibitor (BGJ398) sensitizes HCC1569 cells to lapatinib. B, FGFR inhibitor (BGJ398) sensitizes MDA-MB-453 cells to lapatinib.
(§5) The innate resistant HER2+ breast cancer cell lines were HCC1569 and MDA-MB-453. HC1569 expressed FGFR2 (detected by Western blot) and secreted FGF2 (detected by ELISA). FGFR ECD chimeras from the HCC1569 line were sensitized to lapatinib. Furthermore, HC1569 cells that were treated with FGFR inhibitor(s) sensitized the cells to lapatinib. […] MDA-MB-453 cells that were treated with FGFR inhibitor(s) sensitized the cells to lapatinib.
(§6) HCC1569 and MDA-MB-453 cells were treated with 100 nM afatinib, 100 nM crizotinib, or 100 nM BGJ398 in the presence or absence of 5 μM lapatinib (FIGS. 20A and 20B).

Another test concerns MDA-MB-453 cells. The test is described as follows: Innate resistance model, sensitization to lapatinib (FIG. 20B). The test is classed as cell-based. The conditions noted are these: 100 nM BGJ398 with 5 μM lapatinib. The procedure: as §4, §5, §6
Test [1] has as its system HER2+ breast cancer models of innate resistance. The test is described as follows: Tumor volume, lapatinib + FGFR inhibitor (FIG. 20C). The test is classed as in vivo. To be noted: combination treatment of lapatinib and BGJ398.
The test system of test [2] is HER2+ breast cancer cell lines (AU565, BT-474, HCC1954, SK-BR-3, and UACC-893). The test is described as follows: Block of FGF2 rescue in lapatinib/FGF2 treated cells (FIG. 19A). The test is classed as cell-based. The conditions noted are these: cells treated with lapatinib and FGF2, then FGFR pan inhibitor. On the procedure: FIG. 19 A-D.|FGFR4 mediates FGF2 rescue in HER2+ breast cancer. A, Percent rescue of cells treated with lapatinib and FGF2. B, Immunoblot of cells treated with lapatinib and FGF2. C, TCGA breast cancer samples (n=913) show high […] levels in breast cancer. D, HER2+ breast cancer cells are enriched for high FGFR4.
HER2+ breast cancer cell lines (AU565, BT-474, HCC1954, SK-BR-3, and UACC-893) were treated with lapatinib and FGF2. Thereafter, the cells were either exposed to siRNA targeting FGFR1, FGFR2, FGFR3, or FGFR4 or exposed to the FGFR pan inhibitor BGJ398 (FIG. 19A). […] Immunoblots were also performed to detect IP/pTyr/IB:FGFR4, FGFR4, pERK, ERK, and actin (control) in cells treated with lapatinib in the presence and absence of FGF2 (FIG. 19B).

The test system of test [3] is 624 melanoma cells made resistant to PLX4032. The test is described as follows: pAKT in PLX4032-resistant 624 melanoma cells (FIG. 8B-C). To be noted: treated with PLX4032. It is filed as cell-based. On the procedure: FIG. 8 A-C.|Activation of PI3K represents an alternative mechanism of B-raf-mutant melanomas. A, A synthetic lethal chemical screen identified PI3K-dependent resistance to PLX4032. […] Co-treatment with a […] was needed to growth arrest the 624 ml VemR cells in the presence of PLX4032.

In another test the test system is B-raf mutant melanoma. To be noted: cited from earlier work.
For test [4], the system named is HER2+ breast cancer cell lines. As to the kind of experiment: FGF rescue screen, breast cancer lines (FIG. 15A). It is filed as cell-based. The conditions noted are these: 10 HER2+ breast cancer cell lines. The procedure:
(§7) FIG. 15 A-C.|Screen of 10 melanoma cell lines and 10 breast cancer lines was performed to determine the role of FGF signalling in drug resistance. […] C, Summary of FGF receptors, their subfamily, and their ligands.
(§8) FGF signalling and resistance was studied in 10 HER2+ breast cancer cell lines and in 10 B-raf mutant melanoma cell lines (FIG. 15). 7 of the 10 HER2+ breast cancer cell lines were rescued by FGF2 (FIG. 15A). 8 of the 10 B-raf mutant melanoma cell lines were rescued by FGF2 (FIG. 15B). Subsequent analysis determined that 50-70% of the melanoma lines with the V600E mutation were rescued by FGF2 (n=30).

Test [5] relates to B-raf mutant melanoma cell lines. As to the kind of experiment: Secreted factor / FGF rescue screen, melanoma lines (FIG. 1, FIG. 15B). It is filed as cell-based. The procedure:
(§9) FIG. 1A-D.|Factors secreted by tumor cells and/or the tumor microenvironment contribute to drug resistance through activation of cell-surface receptors. […] D, Secreted growth factors which promote resistance to PLX4032 reactivate MAPK and PI3K pathways. Activation of MAPK by FGF2, MAPK and AKT by HGF and AKT by NRG1 and SCF are shown in 624 MEL cells in the presence of PLX4032. Treatments were 5 μM PLX4032 for 24 hours and 50 ng·mL FGF2, HGF, NRGB1, or SCF for 10 minutes.
as §7, §8

The subject of another test is 624 MEL cells. The test is described as follows: Immunoblot of MAPK and PI3K pathway reactivation by secreted growth factors (FIG. 1D). It is filed as cell-based. The conditions noted are these: 5 μM PLX4032 for 24 hours; 50 ng·mL factor for 10 minutes. On the procedure: as §9
For the next test, the system named is LOX-IMVI cells. The test is described as follows: Secreted factor rescue screen on LOX-IMVI (FIG. 23). The test is classed as cell-based. From the text:
FIG. 23 A-C.|Vemurafenib resistant and sensitive cell lines can be used to determine and anticipate paths to resistance in patients. LOX-IMVI cells were rescued by FGF1, FGF2, EGF, and HGF in the screen. A, LOX-IMVI VemR cells were re-sensitized to PLX4032 by FGFR inhibition. B, Dual resistant LOX-IMVI VemR/FGFRi (i.e., resistant to vemurafenib and FGFR inhibitor) cells were re-sensitized to PLX4032 by EGFR inhibition. C, Triple resistant LOX-IMVI VemR/FGFRi/Erlotinib cells were re-sensitized to PLX4032 by MET inhibition.

The test system of test [6] is HER2+ breast cancer cells. The test is described as follows: Immunoblot of downstream signalling after FGF2 exposure (FIG. 16). It is filed as cell-based. To be noted: FGF2 50 ng/mL for 10 minutes or 24 hours, with or without lapatinib 2 μM. The procedure: FIG. 16 A-B.|FGF2 reactivates key signalling pathways to promote resistance and stimulates sustained activation of downstream signaling. A, An immunoblot of cells exposed to FGF2 for 10 min compared to cells absent exposure. B, An immunoblot of cells exposed to FGF2 for 24 hrs compared to cells absent FGF2 exposure.
Furthermore, it was determined that FGF2 reactivates key signalling pathways to promote resistance (FIG. 16). This was shown in a cell assay wherein HER2+ breast cancer cells were exposed to FGF2 (50 ng·mL) for 10 minutes in the presence or absence of lapatinib (2 μM) (FIG. 16A). Similarly, an assay was performed wherein HER2+ breast cancer cells were exposed to FGF2 (50 ng/mL) for 24 hours in the presence or absence of lapatinib (2 μM) (FIG. 16B).
For orientation: A western blot detects proteins with antibodies after separation by electrophoresis.

For a further test, the system named is B-raf-mutant melanomas. As to the kind of experiment: Immunoblot of MAPK reactivation in FGF2-mediated rescue (FIG. 7A). The test is classed as cell-based. The source says: FIG. 7 A-D.|Reactivation of MEK/ERK downstream of B-raf is a core mechanism of resistance in B-raf-mutant melanomas. A, MAPK signalling is required for FGF2-mediated resistance as shown by immunoblots. […] C, A synthetic lethal chemical screen was utilized to identify signalling pathways mediating resistance to PLX4032 in 12 acquired-resistance melanoma cell lines. […] D, Examples of the synthetic lethal chemical screen shown in FIG. 7C on specific cell lines.

For `CCN1CCN(c2ccc(Nc3cc(N(C)C(=O)Nc4c(Cl)c(OC)cc(OC)c4Cl)ncn3)cc2)CC1` [BGJ398, 3-(2,6-Dichloro-3,5-dimethoxy-phenyl)-1-{6-[4-(4-ethyl-piperazin-1-yl)-phenylamino]-pyrimidin-4-yl}-1-methyl-urea], in the test with LOX-IMVI VemR cell line (FGFR antagonist 1 μM in combination with 5 μM vemurafenib), the “effect on the cell line / resensitization to vemurafenib” value is on record as “resensitized to vemurafenib; also recorded: affected”. Besides, the response to treatment result in the test on LOX-IMVI VemR cells (combination treatment of vemurafenib and BGJ398) was “high response”; in the test on LOX-IMVI VemR cells (single agent alone), “minimal response”. The “response to PLX4032” value in the test with SK-MEL-24 cell line and with SK-MEL-3 cell line was “augmented response” each time. The “re-emergence of tumors following the end of treatment” value with LOX-IMVI tumors (co-treatment with BGJ398 and vemurafenib) is listed as “can be prevented”. For the same compound, the tumor volume result in the test with LOX-IMVI tumors (BID and BGJ398 15 mg/kg, QD) was “tumor volume decreased”; in test [1], “decrease tumor volume; also recorded: Tumor volume decreases”. Also, the “tumor volume / efficacy” value in the test with LOX-IMVI VemR tumors is “did show a decrease in tumor volume”; in the test on LOX-IMVI VemR tumors (listed as NVP-BGJ398), “potent efficacy”. The sensitization to lapatinib entry with HCC1569 cells and with MDA-MB-453 cells was “rescue the cell lines from drug resistance; also recorded: sensitizes” throughout. In test [2], the “percent rescue from acquired resistance to lapatinib and FGF2” value is listed as “greatest percent rescue”.
As to `CCCS(=O)(=O)Nc1ccc(F)c(C(=O)c2c[nH]c3ncc(-c4ccc(Cl)cc4)cc23)c1F` [vemurafenib, N-(3-{[5-(4-chlorophenyl)-1H-pyrrolo[2,3-b]pyridin-3-yl]carbonyl}-2,4-difluorophenyl)propane-1-sulfonamide], the “effect on the cell line” value with LOX-IMVI VemR cell line (5 μM vemurafenib (PLX) alone, DMSO plot) is “not affected”. Besides, the response to treatment result in the test with LOX-IMVI VemR cells (single agent alone) was “minimal response”. Further, the tumor volume result in the test with LOX-IMVI tumors (BID alone) was “tumor volume decreased; also recorded: sensitive”. Also, the tumor volume entry in the test on LOX-IMVI VemR tumors (vemurafenib alone) was “did not show a decrease in tumor volume”. The pAKT entry in [3] is recorded as “increase in pAKT”. The “time to relapse following maximal response” value with B-raf mutant melanoma (majority of patients, residual tumor) is ≤ 1 year. Further, in the test on B-raf mutant melanoma (patients), the patients who respond entry is “majority” and the “patients with tumor progression early in therapy” value is recorded as 10%.
“FGF2: secreted growth factor, FGFR ligand, promotes resistance”: the figures for the “cell lines rescued by FGF2” value in [4] and in test [5] (10 B-raf mutant melanoma cell lines) were 7 of the 10 and 8 of the 10, respectively. Further, the “rescue of tumor cells from B-raf and MEK antagonists” value in test [5] (melanoma cell line, FIG. 1B) is “most broadly and potently”. For the same compound, the “melanoma lines with the V600E mutation rescued by FGF2” value in [5] (subsequent analysis, n=30) is recorded as 50-70%. Further, the “pathway activated in the presence of PLX4032” value in the test on 624 MEL cells is recorded as “MAPK”. For the same compound, in the test with LOX-IMVI cells, the “rescue in the secreted factor screen” value is given as “rescued”. Moreover, the downstream signalling entry in test [6] is on record as “sustained activation of downstream signalling”. Moreover, the “MAPK signalling in the presence of PLX4032” value with B-raf-mutant melanomas is “activates MEK and ERK”.
